Tests used:
SARS-COV-2 [1] = assay: Lung tissue pathology by H&E staining in SARS-COV-2-infected mice; format: in vivo, mouse; conditions: oral inosine administration group vs SARS-COV-2 infection group
Description: The effect of inosine on pathological changes of lung tissue was observed by hematoxylin and eosin (H&E) staining.

SARS-COV-2 [2] = assay: Survival and body weight of SARS-COV-2-infected Balb/c mice; format: in vivo; conditions: preventive administration of inosine
IL-6 = assay: Serum cytokine IL-6 level by ELISA in SARS-COV-2-infected mice; format: in vivo, mouse; conditions: inosine group
Experimental: In the process of cytokine storm (CRS), IL-6 is one of the most critical cytokines, and severity of the CRS is closely related to the increase in IL-6. In the cytokine storm induced by SARS-COV-2, IL-6 plays an important role. In order to determine whether the inosine could inhibit the secretion of IL-6, the level of cytokine IL-6 in mouse serum was determined by ELISA.

OC[C@H]1O[C@@H](n2cnc3c(O)ncnc32)[C@H](O)[C@@H]1O [inosine]
inflammatory infiltration of lung tissue (SARS-COV-2 [1]): significantly improved | pathological changes of lung tissue (H&E staining) (SARS-COV-2 [1]): the lung tissues were structurally intact, alveolar space was clear, no congestion was noted in the pulmonary alveolar wall | day after infection on which body weights regained gradually (SARS-COV-2 [2]): 8 days | weight loss (SARS-COV-2 [2]; vs model group): lower weight loss | survival time of the Balb/c mice (SARS-COV-2 [2]; vs model group (died on days 4-7)): significantly prolonged | level of cytokine IL-6 in mouse serum (IL-6): could inhibit the high expression of SARS-COV-2 induced IL-6

Source: US20240299436A1, “Use of Inosine in Preparing Drug For Treatment of Corona Virus Disease 2019” (PLA ACADEMY OF MILITARY MEDICAL SCIENCES, priority 2021, published 2024)
